The source of these data is patent publication US11452717B2, “Small molecule activators of nicotinamide phosphoribosyltransferase (NAMPT) and uses thereof” (Sanford Burnham Prebys Medical Discovery Institute, priority 2017, dated 2022).

In this assay the target is NAMPT enzyme (Homo sapiens (Human), UniProt P43490). The assay is described as follows: Enzyme Assay and NMN Detection (NAMPT reaction, fluorescence detection of NMN). The format is biochemical. As to conditions: NAMPT activation, NMN formation. On the procedure: NAMPT reaction was performed in 50 mM HEPES, pH 7.5, containing 5 mM MgCl2, 0.1% Prionex, 0.005% Tween 20, and 1 mM TCEP at room temperature in Greiner 384-well black polypropylene plates. The concentration of substrates and enzymes in the final assay were as follows: ATP (120 uM), nicotinamide (5 uM), phosphoribosylpyrophosphate (6.25 uM), NAMPT enzyme (16 nM), pyrophosphatase (0.04 U/ml) in the final reaction volume 6 uL. Following 2 h incubation the reaction was stopped by addition 2.5 ul 20% acetophenone in dimethyl sulfoxide (DMSO) and 2.5 ul 2 MKOH. Plates were centrifuges and added with 10.5 ul 88% formic acid. The fluorescence (ex380/em460) was measured following another short incubation and 30 min incubation. The increased concentration of NMN was determined from a calibration curve obtained at the time of experiment.

Broadly, the EC50 is the concentration needed to bring the measured effect to its halfway point. A higher EC50 goes with a less potent agent.

Sequence of NAMPT enzyme (P43490 whole entry, species assumed): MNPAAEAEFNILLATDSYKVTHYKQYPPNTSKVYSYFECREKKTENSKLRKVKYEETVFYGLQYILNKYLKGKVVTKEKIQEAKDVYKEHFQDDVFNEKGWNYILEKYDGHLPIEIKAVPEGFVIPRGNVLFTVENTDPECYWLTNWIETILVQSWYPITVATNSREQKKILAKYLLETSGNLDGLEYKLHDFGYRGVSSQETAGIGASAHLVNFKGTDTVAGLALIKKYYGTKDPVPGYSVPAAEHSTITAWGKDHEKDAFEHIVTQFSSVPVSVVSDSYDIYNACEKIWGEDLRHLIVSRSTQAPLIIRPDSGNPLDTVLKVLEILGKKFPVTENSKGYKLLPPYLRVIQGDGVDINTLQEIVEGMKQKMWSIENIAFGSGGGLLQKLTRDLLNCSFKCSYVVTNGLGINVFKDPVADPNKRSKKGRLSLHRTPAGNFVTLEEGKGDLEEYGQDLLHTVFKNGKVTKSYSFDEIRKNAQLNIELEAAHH

`O=C(NCc1ccncc1)Nc1ccc(S(=O)(=O)c2ccccc2-c2ccccc2)cc1` [1-(4-([1,1′-Biphenyl]-2-ylsulfonyl)phenyl)-3-(pyridin-4-ylmethyl)urea] registered an EC50 (Table B-6) of 0.1 to 2 µM.
Under “Table B-5”, `O=C(NCc1cnco1)Nc1ccc(S(=O)(=O)c2cccc(-c3ccccc3)c2)cc1` [1-(4-([1,1′-Biphenyl]-3-ylsulfonyl)phenyl)-3-(oxazol-5-ylmethyl)urea] had a concentration for a half-maximal effect (EC50) of 0.1 to 2 µM.
For the molecule `O=C(NCc1cn[nH]c1)Nc1ccc(S(=O)(=O)c2ccccc2)cc1` [1-(4-Benzenesulfonyl-phenyl)-3-(1H-pyrazol-4-ylmethyl)-urea], the EC50 (Table B-1) was < 0.1 µM.
For `O=C(NCc1cnco1)Nc1ccc(S(=O)(=O)c2ccccc2)cc1` [1-(4-Benzenesulfonyl-phenyl)-3-oxazol-5-ylmethyl-urea], the concentration giving a half-maximal response (EC50) (Table B-1) is < 0.1 µM.
On to `O=C(NCc1ccncc1)Nc1ccc(S(=O)(=O)c2ccccc2)cc1` [1-(4-Benzenesulfonyl-phenyl)-3-pyridin-4-ylmethyl-urea], for which, for the setting “Table B-2”, the concentration for a half-maximal effect (EC50) was < 0.1 µM.
Under “Table B-4”, `O=C(NCc1cn[nH]c1)Nc1ccc(-c2cccc3scnc23)cc1` [1-(4-Benzothiazol-4-yl-phenyl)-3-(1H-pyrazol-4-ylmethyl)-urea] came in with an EC50 of 0.1 to 2 µM.
Molecule `O=C(NCc1cnco1)Nc1ccc(-c2cccc3scnc23)cc1` [1-(4-Benzothiazol-4-yl-phenyl)-3-oxazol-5-ylmethyl-urea] had an EC50 (Table B-5) of 0.1 to 2 µM.
Turning to `O=C(NCc1ccncc1)Nc1ccc(-c2cccc3scnc23)cc1` [1-(4-Benzothiazol-4-yl-phenyl)-3-pyridin-4-ylmethyl-urea], the EC50 (Table B-6) was in the range of 0.1 to 2 µM.
Consider `O=C(NCc1ccccn1)Nc1ccc(Cl)cc1` [1-(4-Chlorophenyl)-3-(pyridin-2-ylmethyl)urea], for which, where the note is “Table B-3”, the EC50 was > 20 µM.
On to `O=C(NCc1cccnc1)Nc1ccc(Cl)cc1` [1-(4-Chlorophenyl)-3-(pyridin-3-ylmethyl)urea], for which the EC50 (Table B-3) is > 20 µM.
Turning to `O=C(NCc1ccncc1)Nc1ccc(Cl)cc1` [1-(4-Chlorophenyl)-3-(pyridin-4-ylmethyl)urea], where the note is “Table B-2”, the EC50 fell in the range of 5 to 20 µM.
For `O=C(NCc1cnco1)Nc1ccc(NS(=O)(=O)Cc2ccc(Cl)cc2)cc1` [1-(4-Chlorophenyl)-N-(4-(3-(oxazol-5-ylmethyl)ureido)phenyl)methanesulfonamide], under “Table B-5”, the EC50 was < 0.1 µM.
For the molecule `O=C(NCc1cn[nH]c1)Nc1ccc(S(=O)(=O)C2CCCCC2)cc1` [1-(4-Cyclohexanesulfonyl-phenyl)-3-(1H-pyrazol-4-ylmethyl)-urea], the EC50 (Table B-4) lay within 0.1 to 2 µM.
As to `O=C(NCc1ccncc1)Nc1ccc(S(=O)(=O)C2CCCCC2)cc1` [1-(4-Cyclohexanesulfonyl-phenyl)-3-pyridin-4-ylmethyl-urea], the EC50 (Table B-6) was in the range of 0.1 to 2 µM.
Take `O=C(NCc1ccccn1)Nc1ccc(F)cc1` [1-(4-Fluorophenyl)-3-(pyridin-2-ylmethyl)urea]: for the setting “Table B-3”, the EC50 is > 20 µM.
Still for that read-out and setting: in the case of `O=C(NCc1cccnc1)Nc1ccc(F)cc1` [1-(4-Fluorophenyl)-3-(pyridin-3-ylmethyl)urea] it was > 20 µM.
Regarding `O=C(NCc1ccncc1)Nc1ccc(F)cc1` [1-(4-Fluorophenyl)-3-(pyridin-4-ylmethyl)urea], the EC50 (Table B-2) is > 20 µM.
Consider `COc1ccc(NC(=O)NCc2ccccn2)cc1` [1-(4-Methoxyphenyl)-3-(pyridin-2-ylmethyl)urea], for which the 50% effective concentration (EC50) (Table B-3) was > 20 µM.
Turning to `COc1ccc(NC(=O)NCc2cccnc2)cc1` [1-(4-Methoxyphenyl)-3-(pyridin-3-ylmethyl)urea], the EC50 (Table B-3) was > 20 µM.
Turning to `COc1ccc(NC(=O)NCc2ccncc2)cc1` [1-(4-Methoxyphenyl)-3-(pyridin-4-ylmethyl)urea], under “Table B-2”, the EC50 was > 20 µM.
`O=C(NCc1ccncc1)Nc1ccc(S(=O)(=O)Cc2ccccc2)cc1` [1-(4-Phenylmethanesulfonyl-phenyl)-3-pyridin-4-ylmethyl-urea] had an EC50 (Table B-2) of 2 to 5 µM.
As to `O=C(NCc1ccncc1)Nc1ccc(NS(=O)(=O)Cc2ccc(Cl)cc2)cc1` [1-(4-chlorophenyl)-N-(4-(3-(pyridin-4-ylmethyl)ureido)phenyl)methanesulfonamide], the EC50 (Table B-2) was < 0.1 µM.
On to `O=C(NCc1cnco1)Nc1ccc(S(=O)(=O)C2CCCCC2)cc1` [1-(4-cyclohexanesulfonyl-phenyl)-3-oxazol-5-ylmethyl-urea], for which the EC50 (Table B-5) lay within 2 to 5 µM.
For the setting “Table B-4”, `Cc1cccc2c1c(-c1ccc(NC(=O)NCc3cn[nH]c3)cc1)nn2C` [1-((1H-Pyrazol-4-yl)methyl)-3-(4-(1,4-dimethyl-1H-indazol-3-yl)phenyl)urea] registered an EC50 of 0.1 to 2 µM.
For the setting “Table B-4”, `Cc1ccc2c(c1)c(-c1ccc(NC(=O)NCc3cn[nH]c3)cc1)nn2C` [1-((1H-Pyrazol-4-yl)methyl)-3-(4-(1,5-dimethyl-1H-indazol-3-yl)phenyl)urea] showed an EC50 of 0.1 to 2 µM.
With `Cc1cccc2c(-c3ccc(NC(=O)NCc4cn[nH]c4)cc3)nn(C)c12` [1-((1H-Pyrazol-4-yl)methyl)-3-(4-(1,7-dimethyl-1H-indazol-3-yl)phenyl)urea], the concentration for a half-maximal effect (EC50) (Table B-4) fell in the range of 2 to 5 µM.
The molecule `Cn1nc(-c2ccc(NC(=O)NCc3cn[nH]c3)cc2)c2ccncc21` [1-((1H-Pyrazol-4-yl)methyl)-3-(4-(1-methyl-1H-pyrazolo[3,4-c]pyridin-3-yl)phenyl)urea] had an EC50 (Table B-4) of 2 to 5 µM.
For the setting “Table B-4”, `O=C(NCc1cn[nH]c1)Nc1ccc(-c2ncc(Cc3ccccc3)s2)cc1` [1-((1H-Pyrazol-4-yl)methyl)-3-(4-(5-benzylthiazol-2-yl)phenyl)urea] showed an EC50 of 2 to 5 µM.
The same measure, in the same setting: in the case of `Cn1nc(-c2ccc(NC(=O)NCc3cn[nH]c3)cc2)c2cc(Cl)ccc21` [1-((1H-Pyrazol-4-yl)methyl)-3-(4-(5-chloro-1-methyl-1H-indazol-3-yl)phenyl)urea] it was 0.1 to 2 µM; in that of `O=C(NCc1cn[nH]c1)Nc1ccc(-c2ncc(-c3ccccc3)s2)cc1` [1-((1H-Pyrazol-4-yl)methyl)-3-(4-(5-phenylthiazol-2-yl)phenyl)urea], 5 to 20 µM; in that of `O=C(NCc1cn[nH]c1)Nc1ccc(S(=O)(=O)c2cn[nH]c2)cc1` [1-((1H-Pyrazol-4-yl)methyl)-3-(4-((1H-pyrazol-4-yl)sulfonyl)phenyl)urea], 0.1 to 2 µM.
The molecule `COc1ccc(-c2ccccc2S(=O)(=O)c2ccc(NC(=O)NCc3cn[nH]c3)cc2)cn1` [1-((1H-Pyrazol-4-yl)methyl)-3-(4-((2-(6-methoxypyridin-3-yl)phenyl)sulfonyl)phenyl)urea] displayed an EC50 (Table B-4) of 5 to 20 µM.
Consider `O=C(NCc1cn[nH]c1)Nc1ccc(S(=O)(=O)c2ccccc2F)cc1` [1-((1H-Pyrazol-4-yl)methyl)-3-(4-((2-fluorophenyl)sulfonyl)phenyl)urea], for which the 50% effective concentration (EC50) (Table B-4) was < 0.1 µM.
Molecule `O=C(NCc1cn[nH]c1)Nc1ccc(S(=O)(=O)c2ccccc2-c2ccccc2Cl)cc1` [1-((1H-Pyrazol-4-yl)methyl)-3-(4-((2′-chloro-[1,1′-biphenyl]-2-yl)sulfonyl)phenyl)urea] had an EC50 (Table B-4) of 0.1 to 2 µM.
Under “Table B-4”, `Cc1ccccc1-c1ccccc1S(=O)(=O)c1ccc(NC(=O)NCc2cn[nH]c2)cc1` [1-((1H-Pyrazol-4-yl)methyl)-3-(4-((2′-methyl-[1,l′-biphenyl]-2-yl)sulfonyl)phenyl)urea] returned a half-maximal effective concentration (EC50) of 0.1 to 2 µM.
In turn, `O=C(NCc1cn[nH]c1)Nc1ccc(S(=O)(=O)c2cccc(C(F)(F)F)c2)cc1` [1-((1H-Pyrazol-4-yl)methyl)-3-(4-((3-(trifluoromethyl)phenyl)sulfonyl)phenyl)urea] came in with an EC50 (Table B-6) of 0.1 to 2 µM.
In the case of `O=C(NCc1cn[nH]c1)Nc1ccc(S(=O)(=O)c2cccc(F)c2)cc1` [1-((1H-Pyrazol-4-yl)methyl)-3-(4-((3-fluorophenyl)sulfonyl)phenyl)urea], the EC50 (Table B-4) is < 0.1 µM.
On the same count and under the same terms, in the case of `N#Cc1cccc(-c2ccccc2S(=O)(=O)c2ccc(NC(=O)NCc3cn[nH]c3)cc2)c1` [1-((1H-Pyrazol-4-yl)methyl)-3-(4-((3′-cyano-[1,1′-biphenyl]-2-yl)sulfonyl)phenyl)urea] it was 5 to 20 µM; in that of `COc1ccccc1-c1csc(Nc2ccc(NC(=O)NCc3cn[nH]c3)cc2)n1` [1-((1H-Pyrazol-4-yl)methyl)-3-(4-((4-(2-methoxyphenyl)thiazol-2-yl)amino)phenyl)urea], 0.1 to 2 µM.
Molecule `COc1cccc(-c2csc(Nc3ccc(NC(=O)NCc4cn[nH]c4)cc3)n2)c1` [1-((1H-Pyrazol-4-yl)methyl)-3-(4-((4-(3-methoxyphenyl)thiazol-2-yl)amino)phenyl)urea] came in with an EC50 (Table B-4) of 0.1 to 2 µM.
Same read-out and setting: with `COc1ccc(-c2csc(Nc3ccc(NC(=O)NCc4cn[nH]c4)cc3)n2)cc1` [1-((1H-Pyrazol-4-yl)methyl)-3-(4-((4-(4-methoxyphenyl)thiazol-2-yl)amino)phenyl)urea] the figure was 0.1 to 2 µM; with `O=C(NCc1cn[nH]c1)Nc1ccc(S(=O)(=O)c2ccc(C(F)(F)F)cc2)cc1` [1-((1H-Pyrazol-4-yl)methyl)-3-(4-((4-(trifluoromethyl)phenyl)sulfonyl)phenyl)urea], 0.1 to 2 µM.
As for `O=C(NCc1cn[nH]c1)Nc1ccc(S(=O)(=O)c2ccc(F)cc2)cc1` [1-((1H-Pyrazol-4-yl)methyl)-3-(4-((4-fluorophenyl)sulfonyl)phenyl)urea], the EC50 (Table B-4) is < 0.1 µM.
For the setting “Table B-4”, `O=C(NCc1cn[nH]c1)Nc1ccc(Nc2nc(-c3ccccc3)cs2)cc1` [1-((1H-Pyrazol-4-yl)methyl)-3-(4-((4-phenylthiazol-2-yl)amino)phenyl)urea] gave an EC50 of 0.1 to 2 µM.
Consider `N#Cc1ccc(-c2ccccc2S(=O)(=O)c2ccc(NC(=O)NCc3cn[nH]c3)cc2)cc1` [1-((1H-Pyrazol-4-yl)methyl)-3-(4-((4′-cyano-[1,1′-biphenyl]-2-yl)sulfonyl)phenyl)urea], for which the EC50 (Table B-4) lay within 5 to 20 µM.
